{
  "source": "patent US20130012531A1",
  "about": "“TREATMENT METHOD” (priority 2010, published 2013)",
  "key": {"[1]": {"assay": "Ocular tissue distribution and systemic concentrations of radioactivity after topical ocular administration", "type": "in vivo, Dutch belted (pigmented) rabbits", "description": "The ocular tissue distribution and systemic concentrations of radioactivity were assessed following topical ocular administration of pazopanib to Dutch belted (pigmented) rabbits. A single 60-μL at a target dose of 0.3 mg/dose (30 μCi/dose) was administered to the right eye. Blood and ocular tissues from both the dosed and non-dosed (left) eye were collected from one animal at each of eight sampling times up to 24 h, and analyzed for total radioactivity."}, "CNV lesions": {"tested_on": "CNV lesions", "assay": "Histology (HE) of CNV lesion area on post-laser day 14", "type": "in vivo, Brown Norway rats", "description": "(§1) Male Brown Norway rats (10-12 weeks of age, […] weighing 170 to 360 g) were used throughout this study. The animals were treated according to ARVO Statement on the use of animals in ophthalmic and vision research, and all animal experiments were reviewed and approved by municipal and University Hospital animal care committees in Leipzig. The rats were anesthetized with intraperitoneal ketamine (100 mg/kg; Ratiopharm, Ulm, Germany) and xylazine (BayerVital, Leverkusen, Germany; 10 mg/kg). Topical application of tropicamide (5 mg/ml) and phenylephrine hydrochloride (Ankerpharm, Rudolstadt, Germany; 50 mg/ml) were instilled for mydriasis during laser photocoagulation and fluorescein angiography. Fourteen days after laser injury, rats were humanely euthanized using overdoses of carbon dioxide.\n(§2) Animals were treated using laser photocoagulation-induced rupture of Bruch's membrane using a 545 nm dye laser (Coherent Argon Dye Laser #920, Coherent Medical Laser, Palo Alto, Calif.) attached to a slit lamp (Carl Zeiss, Oberkochen, Germany). A contact lens was used to retain corneal clarity through photocoagulation. The laser spots were placed separately using the following settings; 50-μm diameter, 0.1 second duration, and 180-mW intensity. To rupture Bruch's membrane, four to seven laser spots were applied between the major retinal vessels close to the optic disc. Pazopanib (approximately 30 μl of a 5 mg/ml sterile-filtered solution) was administered twice daily. Animals of the control group received a vehicle only.\nAfter the rats were euthanized on day 14, eyes were immediately dissected and fixed with 4% paraformaldehyde (dissolved in PBS). […] Three to five serial sections from each CNV membrane were measured, and the highest value (representing the top of a given CNV complex) was stored. Digitized images were analyzed and measured with the concomitant image-analysis software (Axiovision; Carl Zeiss). Each lesion was encircled manually, and their area (in μm^2) was calculated by the program."}, "[2]": {"tested_on": "experimental CNV (choroidal neovascularization) leakage", "assay": "Fluorescence angiography in experimental laser-induced CNV", "type": "in vivo, Brown Norway rats", "description": "as §1, §2\nAiming to document treatment of CNV in its early stage, a treatment schedule was used as follows. Laser photocoagulation was carried out as described above, and pazopanib was applied twice a day topically from post laser day 6 until study end on post laser day 14. Coagulated lesions were first documented by angiography on day 7 post laser, and only rats with ocular CNV were included in the analysis. Sodium fluorescein was injected into tail vein of the anesthetized rats and fluorescein angiograms were obtained by means of a fundus camera (FD-31A, Topcon, Tokyo, Japan). On day 14, rats underwent a second angiography. Angiograms taken 100 to 140 seconds after injection were converted to digital images, and areas of fluorescein leakage with intensity as high as in major vessels were quantified in a masked fashion BY two of us (YY; XMY) using a computer software (NIH image, Research Service Branch, Bethesda, Md.). Differences in fluorescence were calculated by the following formula:\nArea of fluorescein leakage on day 14×100%/area of fluorescein leakage on day 7."}, "[3]": {"assay": "Plasma and ocular tissue drug concentration after topical eye drops", "type": "in vivo, Norway Brown rats", "conditions": "for concentration at 5 hours after third drop: female, Norway Brown, rat, topical, 30 μl (5 mg/ml) per drop, three drops over 24 hours, 30 μl drops to left eye only, three times over 24 hours", "description": "Female Norway Brown rats were used during these studies. Rats were purchased from Charles River (Portage, Mich.). […]\nRats were euthanized by CO2 inhalation before enucleation and collection of plasma samples. Samples were frozen immediately over dry ice after collection and then stored at −80° C. The ocular tissues were processed through a dissection-pulverization-drug extraction process. Frozen eye sectioning was performed by the following steps. The preparation of rat eye cups was done by removing the anterior portion of the eye with a razor blade followed by removal of the lens and frozen vitreous with forceps. A sagittal section was made in the eye cup before collection of the retina/choroid tissue by scraping the exposed sclera with the round end of a spatula until the pigmented tissue was completely removed from the scleral tissue. The collected tissues were pulverized under liquid nitrogen. Frozen tissue was carefully placed in a liquid nitrogen primed BioPulverizer (Biospec Products Inc, Bartlesville, Okla.). Following pulverization the tissue powder was removed from the pulverizer and transferred into a polypropylene tube. Extraction buffer (50% methanol/50% 0.5 M HCl) was added to tissue powder followed by two cycles of sonication, centrifugation, and supernatant collection. Tissue homogenate supernatant was pooled and frozen on dry ice then stored at −80° C. until drug analysis. The extraction efficacy of this methodology was assumed to be 100% for calculation purposes.\nPlasma samples and eye tissue extracts were analyzed for pazopanib using a validated analytical method based on protein precipitation, followed by HPLC/MS/MS analysis, Using 50 μl aliquot of plasma and eye tissue extract, the lower limit of quantification of pazopanib was 1 ng/ml for plasma and 10 ng/ml for eye tissue extract. The higher limit of quantification was 500 ng/ml for plasma and 5000 ng/ml for eye tissue extracts. The computer systems that were used on these studies to acquire and quantify data included Analyst Version 1.4,1 and SMS2000 Version 1.6. Plasma sample concentrations were expressed as ng pazopanib/ml. Tissue concentrations were determined by the following formula: Pazopanib ng/g tissue=([concentration in supernatant ng/ml*extract volume ml]/tissue weight g)."}, "[4]": {"conditions": "single 60-μL topical dose 0.3 mg"}, "[5]": {"conditions": "single 60-μL topical dose 0.3 mg, 2 h"}},
  "note": "Read-outs that look alike come from different tables or passages of the source.",
  "data": [
    {"smiles": "Cc1ccc(Nc2nccc(N(C)c3ccc4c(C)n(C)nc4c3)n2)cc1S(N)(=O)=O", "note": "[pazopanib, 5-[[4-[(2,3-dimethyl-2H-indazol-6-yl)methylamino]-2-pyrimidinyl]amino]-2-methylbenzenesulfonamide]", "values": [
      {"measurement": "time of choroid peak level", "setting": "[1]; [4]", "value": 8, "unit": "h"},
      {"measurement": "time of highest concentration in blood", "setting": "[1]; [4]", "value": 1, "unit": "h"},
      {"measurement": "time of highest concentration in plasma", "setting": "[1]; [4]", "value": 2, "unit": "h"},
      {"measurement": "time of retina peak level", "setting": "[1]; [4]", "value": 4, "unit": "h"},
      {"measurement": "highest concentration of radioactivity in blood", "setting": "[1]; single 60-μL topical dose 0.3 mg to right eye, at 1 h", "value": 11.3, "unit": "ng eq/g"},
      {"measurement": "highest concentration of radioactivity in plasma", "setting": "[1]; single 60-μL topical dose 0.3 mg to right eye, at 2 h", "value": "12,8 ng eq/g"},
      {"measurement": "choroid level of radioactivity at 2 h", "setting": "[1]; [5]", "value": 40.6, "unit": "ng eq/g"},
      {"measurement": "retina level of radioactivity at 2 h", "setting": "[1]; [5]", "value": 9.17, "unit": "ng eq/g"},
      {"measurement": "retina peak level of radioactivity", "setting": "[1]; single 60-μL topical dose 0.3 mg, at 4 h", "value": 10.2, "unit": "ng eq/g"},
      {"measurement": "choroid peak level of radioactivity", "setting": "[1]; single 60-μL topical dose 0.3 mg, at 8 h", "value": 60.1, "unit": "ng eq/g"},
      {"measurement": "CNV lesion area", "setting": "CNV lesions; eyes treated topically with pazopanib, day 14 after laser", "value": "7,760.3±2,312.0 μm^2"},
      {"measurement": "inhibition in lesion size", "setting": "CNV lesions; lasered eyes from rats treated topically in the fellow eye", "value": "~34", "unit": "%"},
      {"measurement": "inhibition in lesion size compared to vehicle control", "setting": "CNV lesions; topically treated eyes, day 14", "value": 71.7, "unit": "%"},
      {"measurement": "Area of fluorescein leakage on day 14 x 100% / area on day 7", "setting": "[2]; lesioned eyes whose fellow (contralateral) eye was pazopanib-treated, % of baseline day 7", "value": "115.24±16.72", "unit": "%"},
      {"measurement": "development of CNV lesions (vessel leakage, fluorescence angiography)", "setting": "[2]; topically administered, post laser days 7 to 14, versus vehicle", "value": "significantly reduced"},
      {"measurement": "Area of fluorescein leakage on day 14 x 100% / area on day 7", "setting": "[2]; topically treated eyes, twice daily 5 mg/ml eye drops, post laser day 6-14, mean±SD, baseline 100% at day 7", "value": "111.41±21.34", "unit": "%"},
      {"measurement": "inhibition of further lesion development", "setting": "[2]; twice-daily topical administration, versus vehicle control eyes", "value": "> 89", "unit": "%"},
      {"measurement": "concentration at 5 hours after third drop", "setting": "[3]; eye cup tissues of the fellow non-treated eye (OD), read-out: pazopanib in eye cup tissues, fellow non-treated eye (OD), mean", "value": 159, "unit": "ng/g"},
      {"measurement": "concentration at 5 hours after third drop", "setting": "[3]; read-out: pazopanib in eye cup tissues (sclera, choroid, retina), treated eye (OS), mean", "value": 503, "unit": "ng/g"},
      {"measurement": "plasma level after 24 hours", "setting": "[3]; single 30 μl eye drop", "value": "undetectable"},
      {"measurement": "time of peak plasma level", "setting": "[3]; single 30 μl eye drop", "value": 60, "unit": "min"},
      {"measurement": "peak plasma level", "setting": "[3]; single 30 μl eye drop (5 mg/ml)", "value": "~300", "unit": "ng/mL"}
    ]}
  ]
}
